Data: patent US20240282989A1, “PHENOTHIAZINE DERIVATIVES AND REDOX-FLOW BATTERIES” (University of Kentucky Research Foundation, priority 2023, published 2024)

Legend:
Assay type in all cases: physicochemical
[1] = Cross-over experiments in custom-built H-cell with FAPQ-375-PP membrane; details: 0.1 M redoxomer in anhydrous acetonitrile; two layers FAPQ-375-PP membrane; CV of blank side up to 24 h
Procedure: We compared cross-over fractions of our newly synthesized redoxomers with our previous redoxomers such as MEEPT and EPRT-TFSI using a custom-built H-cell. A stack of two layer of FAPQ-375-PP membrane pre-soaked in acetonitrile for 24 h was used as membrane between two compartments of H-cell. For each set of experiment, a 0.1 M solution of redoxomer in anhydrous acetonitrile on the left side and acetonitrile (blank solution) on the right side. The cross over fractions were determined by cyclic voltammetry of the solution from the blank side in 0 h, 2 h, 4 h, 8 h, 12 h, and 24 h in a argon-filled glovebox.

[2] = Solubility / miscibility measurement (NMR method, internal standard); details: for solubility: organic solvent or mixture, NMR method
Procedure: The MEEPRT-TFSI monomer is a viscous liquid at room temperature, the miscibility was determined in acetonitrile and 0.1 M TEATFSI in acetonitrile. In both solvents, it is miscible when mixed with 1:10, 10:1, and 1:1 ratio by wt. of acetonitrile:redoxomers. Solubility of redoxomers were determined by NMR method using 1,4-bis(trifluoromethyl)benzene as an internal standard.

[3] = Cyclic voltammetry of monomer and dimer; details: for 1st oxidation potential / ipa/ipc / peak separation: 1 mM in 0.1 M TEABF4/ACN; for redox event (number of electrons, reversibility) / oxidation potential: 10 mM solution; for redox event (number of electrons, reversibility): cyclic voltammetry; for ipa/ipc / peak separation: 1st oxidation; for oxidation potential: referenced to Fc/Fc+, glassy carbon working electrode
Procedure: The electrochemical stability and reversibility of redox-events were determined by cyclic voltammetry experiments, which were carried out in a CH Instrument potentiostat with glassy carbon electrode as a working electrode, Pt-wire electrode as a counter electrode and a silver electrode as a reference electrode. […]

Row | cross over fraction [1] | solubility ([2]; in 0.1 M TEATFSI in acetonitrile) [mM] | solubility ([2]; in acetonitrile) [mM] | 1st oxidation potential [3] [V] | ipa/ipc [3] | peak separation [3] [mV] | oxidation potential [3] | miscibility ([2]; in 0.1 M TEATFSI in acetonitrile, 1:10, 10:1 and 1:1 ratio by wt.) | miscibility ([2]; in acetonitrile, 1:10, 10:1 and 1:1 ratio by wt. acetonitrile:redoxomers, room temperature) | SMILES | redox event (number of electrons, reversibility) [3] | miscibility of radical cations ([2]; in acetonitrile, 1:1, 10:1 and 1:10 by wt.)
1 | 0.0471 |  |  |  |  |  |  |  |  | COCCOCCN1c2ccccc2Sc2ccccc21 [MEEPT, reference compound] |  | 
2 | 0.0037 | 1200 | 1600 | 0.54 | 1.06 | 59 | same potential |  |  | CC(CN1c2ccccc2Sc2ccccc21)[N+](C)(C)CCOCCOCC[N+](C)(C)C(C)CN1c2ccccc2Sc2ccccc21 (stereo not drawn) [EEEPRT-TFSI2] | two-electron reversible redox event | 
3 |  |  |  |  |  |  |  |  |  | CC(C[N+]1c2ccccc2Sc2ccccc21)[N+](C)(C)CCOCCOCC[N+](C)(C)C(C)C[N+]1c2ccccc2Sc2ccccc21 (stereo not drawn) [dimer radical cation] |  | completely miscible
4 | 0.0346 |  |  | 0.54 | 1.06 | 59 | 0.54 V | miscible | miscible | COCCOCC[N+](C)(C)C(C)CN1c2ccccc2Sc2ccccc21 (stereo not drawn) [MEEPRT-TFSI] | single electron reversible redox reaction | 
